Results taken from patent US20120071516A1, “COMPOUNDS THAT MODULATE INTRACELLULAR CALCIUM” (CalciMedica, Inc., priority 2010, published 2012).

Key:
Orai1/STIM1 = target: T1, Orai1/STIM1 (Homo sapiens, UniProt Q96D31); experiment: Fluorescence-based assay of store-operated calcium entry in Orai1/STIM1 stable cells; assay type: cell-based; design: key to Orai1/STIM1 (IC50, μmol): A ≦ 1.0 μmol; B > 1.0 μmol; -- = no fit; settings: HEK-293 cells stably expressing human STIM1 and Orai1, 50% inhibition of Peak-Basal fluo-4 signal, 30 minutes compound incubation; for IC50: read-out: Orai1/STIM1 (IC50, μmol)
T1 construct: c-myc (C); expressed in transfected cells
T1 sequence (Q96D31 whole entry): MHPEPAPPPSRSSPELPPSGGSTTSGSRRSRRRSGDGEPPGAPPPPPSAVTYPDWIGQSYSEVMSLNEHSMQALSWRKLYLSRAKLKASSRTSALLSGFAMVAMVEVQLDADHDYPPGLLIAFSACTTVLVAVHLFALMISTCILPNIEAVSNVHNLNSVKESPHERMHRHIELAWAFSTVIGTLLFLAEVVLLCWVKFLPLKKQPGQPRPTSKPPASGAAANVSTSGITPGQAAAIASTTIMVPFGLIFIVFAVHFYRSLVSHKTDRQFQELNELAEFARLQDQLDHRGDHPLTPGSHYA
Procedure: A. Fluorescence-Based Assay of Store-Operated Calcium Entry in Orail/STIM1 Stable Cells.
Cells stably expressing recombinant human STIM1 and Orail are generated by transfecting a human Orail expression plasmid (pcDNA3.1-Orail-cmyc) into HEK-293 cells stably overexpressing human STIM1 (Roos et al. 2005 JCB 169(3): 435-445). Colonies of cells stably expressing both STIM1 and Orail proteins are selected and then subcloned by limiting dilution. Cells were cultured at 37° C./6% CO2 in complete medium with 10% FBS and appropriate selection markers.
The day prior to performing the assay Orail/STIM1 stable cells are plated in 50 μL of complete medium at 90-95% confluence in a 384 well plate. Cells are grown at 37° C./6% CO2 overnight. On the day of the assay, 1.5 μM fluo-4-AM (Invitrogen) in complete medium is added to the cells, which are then incubated for 1 hour at RT. Cells are washed once in Ca^2+-free HBSS (Hank's buffered saline solution) and 35 μl of Ca^2+-free HBSS is added to each well. Test compounds are added to wells in a 10 μL Ca^2+-free HBSS solution, prepared at 4.5× the desired final concentration, and incubated for 30 minutes at RT. The initial baseline fluorescence signal is then measured with a FLIPR^384 (Molecular Devices) plate reader. Calcium entry is initiated by adding 5 μl of 10×CaCl2 (10 mM) in HBSS, and changes in cellular fluorescence are measured with the FLIPR^384 plate reader. In each well, the magnitude of the fluorescence signal as a result of calcium entry into the cell is determined by calculating the difference between the peak fluorescence signal measured after calcium addition and the initial baseline fluorescence signal (designated Peak-Basal). IC50 values are typically calculated as the concentration that inhibited 50% of the Peak-Basal signal (Table A).

RBL-2H3 cells = experiment: Fluorescence-based assay of store-operated calcium entry in RBL-2H3 cells; assay type: cell-based; settings: Rattus norvegicus, thapsigargin, 50% inhibition of Upslope (7 seconds after calcium addition), read-out: RBL-2H3 (IC50, μmol)
Procedure: B. Fluorescence-Based Assay of Store-Operated Calcium Entry in RBL-2H3 Cells.
RBL-2H3 cells are obtained from ATCC and maintained in complete medium with 10% FBS at 37° C./6% CO2.
The day prior to performing the assay, RBL-2H3 cells are plated in 50 μL of complete medium in a 384 well plate. Cells are grown at 37° C./6% CO2 overnight and grow to 50-60% confluence by the next day. On the assay day, 1.5 μM Fluo-4-AM dye (Invitrogen) in complete medium is added and incubated for 1 hour at RT. Cells are washed twice in Ca^2+-free HBSS buffer and 35 μL Ca^2+-free HBSS buffer is added to each well. 10 μL of a test compound prepared in a Ca^2+-free HBSS solution at 4.5× of the desired concentration is added to a well and incubated for 5 minutes at RT. 10 μL of thapsigargin prepared in a Ca^2+-free HBSS solution at 5.5× of the desired concentration (5.5 uM) is added to each well and incubated for an additional 25 minutes. The initial baseline fluorescence signal is measured with a FLIPR^384 (Molecular Devices) plate reader. 5 μL of 12× calcium in HBSS (12 mM) is added and changes in cellular fluorescence are measured with the FLIPR^384 plate reader. In each well, the change in the fluorescent signal as a function of time due to calcium entry into the cell is determined by calculating the difference between the fluorescent signal measured 7 seconds after calcium addition and the initial baseline fluorescence signal at time zero (t=0). This parameter is designated Upslope. The IC50 value is calculated as the concentration at which 50% of the Upslope is inhibited.

[1] = target: STIM1 and Orail in HEK293 cells (Homo sapiens, UniProt Q96D31); settings: HEK293 cells co-expressing STIM1 and Orai1; cited from earlier work
Chain of STIM1 and Orail in HEK293 cells (Q96D31 whole entry): as above

Jurkat cells = Jurkat cells and colon cancer cells; cited from earlier work

| SMILES | IC50 (Orai1/STIM1) [nM] | IC50 (RBL-2H3 cells) [nM] | also measured |
| --- | --- | --- | --- |
| Cn1nc(C(F)(F)F)cc1-c1ccc(C(=O)Nc2ccccc2F)[se]1 | ≤ 1000 | ≤ 1000 |  |
| Cn1nc(C(F)(F)F)cc1-c1ccc(C(=O)Nc2c(F)cccc2F)[se]1 | ≤ 1000 | ≤ 1000 |  |
| Cn1nc(C(F)(F)F)cc1-c1ccc(C(=O)Nc2ccncc2F)[se]1 | ≤ 1000 | ≤ 1000 |  |
| Cn1nc(-c2ccccc2F)cc1-c1ccc(C(=O)Nc2ccccc2F)[se]1 | ≤ 1000 | ≤ 1000 |  |
| Cn1nc(-c2ccccc2F)cc1-c1ccc(C(=O)Nc2c(F)cccc2F)[se]1 | ≤ 1000 | ≤ 1000 |  |
| Cn1nc(-c2ccccc2F)cc1-c1ccc(C(=O)Nc2ccncc2F)[se]1 | ≤ 1000 | ≤ 1000 |  |
| Cn1nc(-c2ccco2)cc1-c1ccc(C(=O)Nc2ccccc2F)[se]1 | ≤ 1000 | ≤ 1000 |  |
| Cn1nc(-c2ccco2)cc1-c1ccc(C(=O)Nc2c(F)cccc2F)[se]1 |  | > 1000 | Orai1/STIM1 (IC50, μmol) (Orai1/STIM1): -- |
| Cn1nc(-c2ccco2)cc1-c1ccc(C(=O)Nc2ccncc2F)[se]1 | ≤ 1000 | ≤ 1000 |  |
| Cn1nc(-c2nccs2)cc1-c1ccc(C(=O)Nc2ccccc2F)[se]1 | ≤ 1000 | ≤ 1000 |  |
| Cn1nc(-c2nccs2)cc1-c1ccc(C(=O)Nc2c(F)cccc2F)[se]1 | ≤ 1000 | ≤ 1000 |  |
| Cn1nc(-c2nccs2)cc1-c1ccc(C(=O)Nc2ccncc2F)[se]1 | ≤ 1000 | ≤ 1000 |  |
| O=C(Nc1ccncc1F)c1ccc(-c2cc(C(F)(F)F)ccc2Cl)[se]1 | > 1000 | > 1000 |  |
| Cc1nc2cc(Cl)c(-c3ccc(C(=O)Nc4ccccc4F)[se]3)cc2o1 | ≤ 1000 | ≤ 1000 |  |
| Cc1cc2scnc2cc1-c1ccc(C(=O)Nc2c(F)cccc2F)[se]1 | ≤ 1000 | ≤ 1000 |  |
| O=C(Nc1[se]cc(-c2ccc(Cl)cc2)c1C(=O)O)c1nc2ccccc2s1 | > 1000 | > 1000 |  |
| O=C(Nc1[se]cc(-c2ccc(Br)cc2)c1C(=O)O)c1nc2ccccc2s1 | > 1000 | ≤ 1000 |  |
| O=C(Nc1[se]cc(-c2ccc(Br)cc2)c1C(=O)O)c1cc2ccccc2o1 | ≤ 1000 | ≤ 1000 |  |

| SMILES | IC50 (Orai1/STIM1) [nM] | IC50 (RBL-2H3 cells) [nM] | also measured |
| --- | --- | --- | --- |
| Cn1nc(C(F)(F)F)cc1-c1cnc(NC(=O)c2ccccc2F)[se]1 | ≤ 1000 | ≤ 1000 |  |
| Cn1nc(C(F)(F)F)cc1-c1cnc(NC(=O)c2ccccc2Cl)[se]1 | ≤ 1000 | ≤ 1000 |  |
| Cn1nc(C(F)(F)F)cc1-c1cnc(NC(=O)c2c(F)cccc2F)[se]1 | ≤ 1000 | ≤ 1000 |  |
| CCn1nc(C(F)(F)F)cc1-c1cnc(NC(=O)c2ccccc2F)[se]1 | ≤ 1000 | ≤ 1000 |  |
| Cn1nc(-c2ccccc2F)cc1-c1cnc(NC(=O)c2ccccc2F)[se]1 | > 1000 | ≤ 1000 |  |
| Cc1ccccc1-c1cnc(NC(=O)c2ccccc2F)[se]1 | ≤ 1000 | ≤ 1000 |  |
| Cc1ccccc1-c1cnc(NC(=O)c2ccccc2Cl)[se]1 | ≤ 1000 | ≤ 1000 |  |
| Cc1ccccc1-c1cnc(NC(=O)c2c(F)cccc2F)[se]1 | ≤ 1000 | ≤ 1000 |  |
| Cc1ccc(F)cc1-c1cnc(NC(=O)c2ccccc2F)[se]1 | ≤ 1000 | ≤ 1000 |  |
| Cc1ccc(Cl)cc1-c1cnc(NC(=O)c2ccccc2F)[se]1 | ≤ 1000 | ≤ 1000 |  |
| O=C(Nc1ncc(-c2ccccc2C(F)(F)F)[se]1)c1ccccc1F | ≤ 1000 | ≤ 1000 |  |
| Cc1cscc1-c1cnc(NC(=O)c2ccccc2F)[se]1 | > 1000 | ≤ 1000 |  |
| Cc1cc2c(cc1-c1cnc(NC(=O)c3ccccc3F)[se]1)OC(F)(F)O2 | ≤ 1000 | ≤ 1000 |  |
| Cc1cc2c(cc1-c1cnc(NC(=O)c3c(F)cccc3F)[se]1)OC(F)(F)O2 | > 1000 | ≤ 1000 |  |
| Cc1cc(OC(F)(F)F)ccc1-c1cnc(NC(=O)c2ccccc2F)[se]1 | ≤ 1000 | ≤ 1000 |  |
| Cc1cc(OC(F)(F)F)ccc1-c1cnc(NC(=O)c2c(F)cccc2F)[se]1 |  | ≤ 1000 | Orai1/STIM1 (IC50, μmol) (Orai1/STIM1): -- |
| NCCOB(c1ccccc1)c1ccccc1 [2-aminoethoxydiphenylborate] |  |  | block of store-operated Ca2+ entry [1]: completely blocked |
| Cc1nnsc1C(=O)Nc1ccc(-n2nc(C(F)(F)F)cc2C(F)(F)F)cc1 [BTP-2] |  |  | inhibition of SOCE (Jurkat cells): inhibits; inhibition of proliferation (Jurkat cells): inhibits |
